{"source": "patent US9890146B2", "about": "“Compound having selective EP2 agonist activity” (ONO PHARMACEUTICAL CO., LTD., priority 2014, dated 2018)", "system": "male monkey (a cynomolgus monkey)", "test": "Intraocular pressure lowering activity after ocular instillation", "assay_type": "in vivo", "details": "Primates, in Macaca fascicularis, topical, maximum rate during 24 hours after ocular instillation of 30 μL, conscious monkey; for inhibition in vivo at 3 µg/mL: administration concentration 3 μg/mL; for inhibition in vivo at 10 µg/mL: administration concentration 10 μg/mL", "description": "As can be easily understood by a person skilled in the art, in an in vivo test, since regarding all test compounds, carboxylic acid which is an active body has poor corneal permeability, pharmacological action of the active body was evaluated by ocular instillation administration of a compound which had been converted into an ester such as an ethyl ester or an isopropyl ester, or an alcohol.\nA test compound-containing solution (30 μL) which had been adjusted to each of various concentrations was ocular instillation-administered to the left or right eye of a male monkey (a cynomolgus monkey) under consciousness. An intraocular pressure after administration was measured with time from administration initiation to after 24 hours. Upon measurement of an intraocular pressure, a cynomolgus monkey was fixed on a monkey chair, and the monkey was anesthetized by ocular instillation-administering an ocular surface anesthetic (Benoxil eye drops 0.4% Santen Pharmaceutical Co., Ltd.). After mounting of a blepharostat (Handaya Co., Ltd.), an intraocular pressure of both eyes was measured (7 to 8 examples per group) using a pneumatic applanation flat tonometer (Model 30 Classic, REICHERT). A difference between an intraocular pressure value before the administration of a test substance and an intraocular pressure value after the administration of the test substance was calculated as an intraocular pressure lowering rate in accordance with the following equation, and the sustainability of intraocular eye lowering action was evaluated using a maximum intraocular pressure lowering rate during measurement.\nThe administered concentrations were determined based on the EP2 agonist activities measured by the above-mentioned method."}
{"smiles": "CSc1cc(OC[C@@H]2[C@H]3CC[C@H](c4nc(CO)cs4)O[C@H]3C[C@@H]2O)ccc1C", "note": "[10(12), (2R,4aR,5S,6S,7aS)-2-[4-(hydroxymethyl)-1,3-thiazol-2-yl]-5-{[4-methyl-3-(methylthio)phenoxy]methyl}octahydrocyclopenta[b]pyran-6-ol]", "values": [{"measurement": "inhibition in vivo at 0.3 µg/mL", "setting": "administration concentration 0.3 μg/mL", "result": 33, "unit": "%"}]}
{"smiles": "CCc1ccc(OC[C@@H]2[C@H]3CC[C@H](c4nc(CO)cs4)O[C@H]3C[C@@H]2O)cc1C1CC1", "note": "[10(15), (2R,4aR,5S,6S,7aS)-5-[(3-cyclopropyl-4-ethylphenoxy)methyl]-2-[4-(hydroxymethyl)-1,3-thiazol-2-yl]octahydrocyclopenta[b]pyran-6-ol]", "values": [{"measurement": "inhibition in vivo at 3 µg/mL", "result": 37, "unit": "%"}]}
{"smiles": "OCc1csc([C@H]2CC[C@@H]3[C@@H](COc4ccc5c(c4)CCCCC5)[C@@H](O)C[C@@H]3O2)n1", "note": "[10(16), (2R,4aR,5S,6S,7aS)-2-[4-(hydroxymethyl)-1,3-thiazol-2-yl]-5-[(6,7,8,9-tetrahydro-5H-benzo[7]annulen-2-yloxy)methyl]octahydrocyclopenta[b]pyran-6-ol]", "values": [{"measurement": "inhibition in vivo at 10 µg/mL", "result": 45, "unit": "%"}]}
{"smiles": "CCc1ccc(OC[C@@H]2[C@H]3CC[C@H](c4nc(CO)cs4)O[C@H]3C[C@@H]2O)cc1C1CCC1", "note": "[10(17), (2R,4aR,5S,6S,7aS)-5-[(3-cyclobutyl-4-ethylphenoxy)methyl]-2-[4-(hydroxymethyl)-1,3-thiazol-2-yl]octahydrocyclopenta[b]pyran-6-ol]", "values": [{"measurement": "inhibition in vivo at 100 µg/mL", "setting": "administration concentration 100 μg/mL", "result": 57, "unit": "%"}]}
{"smiles": "Cc1ccc(OC[C@@H]2[C@H]3CC[C@H](c4nc(CO)cs4)O[C@H]3C[C@@H]2O)cc1Cl", "note": "[10(21), (2R,4aR,5S,6S,7aS)-5-[(3-chloro-4-methylphenoxy)methyl]-2-[4-(hydroxymethyl)-1,3-thiazol-2-yl]octahydrocyclopenta[b]pyran-6-ol]", "values": [{"measurement": "inhibition in vivo at 1 µg/mL", "setting": "administration concentration 1 μg/mL", "result": 44, "unit": "%"}]}
{"smiles": "OCc1csc([C@H]2CC[C@@H]3[C@@H](COc4ccc5c(c4F)CCC5)[C@@H](O)C[C@@H]3O2)n1", "note": "[10(22), (2R,4aR,5S,6S,7aS)-5-{[(4-fluoro-2,3-dihydro-1H-inden-5-yl)oxy]methyl}-2-[4-(hydroxymethyl)-1,3-thiazol-2-yl]octahydrocyclopenta[b]pyran-6-ol]", "values": [{"measurement": "inhibition in vivo at 3 µg/mL", "result": 43, "unit": "%"}]}
{"smiles": "CCc1ccc(OC[C@@H]2[C@H]3CC[C@H](c4nc(CO)cs4)O[C@H]3C[C@@H]2O)cc1CC", "note": "[10(32), (2R,4aR,5S,6S,7aS)-5-[(3,4-diethylphenoxy)methyl]-2-[4-(hydroxymethyl)-1,3-thiazol-2-yl]octahydrocyclopenta[b]pyran-6-1]", "values": [{"measurement": "inhibition in vivo at 3 µg/mL", "result": 41, "unit": "%"}]}
{"smiles": "OCc1csc([C@H]2CC[C@@H]3[C@@H](COc4ccc(C5CC5)c(C5CC5)c4)[C@@H](O)C[C@@H]3O2)n1", "note": "[Example 10, (2R,4aR,5S,6S,7aS)-5-[(3,4-dicyclopropylphenoxy)methyl]-2-[4-(hydroxymethyl)-1,3-thiazol-2-yl]octahydrocyclopenta[b]pyran-6-ol]", "values": [{"measurement": "inhibition in vivo at 10 µg/mL", "result": 40, "unit": "%"}]}
